Assays:
Assay in all cases: relative viability (nuclei count vs DMSO), 5 days (fraction); higher = more cells survive
Bortezomib + Alpelisib = compound: CC(C)C[C@H](NC(=O)[C@H](Cc1ccccc1)NC(=O)c1cnccn1)B(O)O [Bortezomib] + Cc1nc(NC(=O)N2CCC[C@H]2C(N)=O)sc1-c1ccnc(C(C)(C)C(F)(F)F)c1 [Alpelisib] (partner 2 µM)
How it was run: (§1)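 Relative viability was taken as the ratio of nuclei in treated wells to nuclei in vehicle wells. Lung cancer cell lines in 1536-well plates received compounds by pin tool one day after seeding, either one drug alone or a fixed anchor-drug dose plus five library-drug doses (not always all listed) in √10 steps. Nuclei were counted on 4× images after 5 days of treatment, and values are medians of duplicate plates.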

[1] = compound: CC1=CC(=NN1)NC2=CC(=NC(=N2)/C=C/C3=CC=CC=C3)N4CCN(CC4)C + NC(=O)Nc1cc(-c2cccc(F)c2)sc1C(=O)N[C@H]1CCCNC1 [AZD7762] (partner 0.2 µM)
How it was run: as §1

[2] = compound: CC1=CC(=NN1)NC2=CC(=NC(=N2)/C=C/C3=CC=CC=C3)N4CCN(CC4)C + CC(=O)c1c(C)c2cnc(Nc3ccc(N4CCNCC4)cn3)nc2n(C2CCCC2)c1=O [Palbociclib] (partner 0.5 µM)
How it was run: as §1

[3] = compound: CC1=CC(=NN1)NC2=CC(=NC(=N2)/C=C/C3=CC=CC=C3)N4CCN(CC4)C + N=C(N)NC(=N)NCCc1ccccc1 [Phenformin] (partner 250 µM)
How it was run: as §1

| Cell Line | relative viability (Bortezomib + Alpelisib; first compound 0.0002 µM) | relative viability (Bortezomib + Alpelisib; first compound 0.000632 µM) | relative viability (Bortezomib + Alpelisib; first compound 0.002 µM) | relative viability (Bortezomib + Alpelisib; first compound 0.006325 µM) | relative viability (Bortezomib + Alpelisib; first compound 0.02 µM) | relative viability ([1]; first compound 0.08 µM) | relative viability ([1]; first compound 0.253 µM) | relative viability ([1]; first compound 0.8 µM) | relative viability ([1]; first compound 2.53 µM) | relative viability ([1]; first compound 8 µM) | relative viability ([2]; first compound 0.08 µM) | relative viability ([2]; first compound 0.253 µM) | relative viability ([2]; first compound 0.8 µM) | relative viability ([2]; first compound 2.53 µM) | relative viability ([2]; first compound 8 µM) | relative viability ([3]; first compound 0.08 µM) | relative viability ([3]; first compound 0.253 µM) | relative viability ([3]; first compound 0.8 µM) | relative viability ([3]; first compound 2.53 µM) | relative viability ([3]; first compound 8 µM) |
| --- | --- | --- | --- | --- | --- | --- | --- | --- | --- | --- | --- | --- | --- | --- | --- | --- | --- | --- | --- | --- |
| HOP-62 | 0.938 | 1.08 | 0.33 | 0.0928 | 0.067 | 0.673 | 0.615 | 0.778 | 0.385 | 0.159 | 0.41 | 0.458 | 0.492 | 0.371 | 0.154 | 0.713 | 0.758 | 0.688 | 0.459 | 0.26 |
| LK-2 |  | 1.01 | 0.263 | 0.256 | 0.27 | 0.245 | 0.364 | 0.323 | 0.0834 | 0.0556 | 0.61 | 0.691 | 0.547 | 0.33 | 0.0792 | 0.313 | 0.327 | 0.309 | 0.111 | 0.117 |
| NCI-H23 |  | 0.72 | 0.829 | 0.116 | 0.109 | 0.246 | 0.186 | 0.23 | 0.094 | 0.101 | 0.483 | 0.505 | 0.409 | 0.158 | 0.123 | 0.793 | 0.887 | 0.711 | 0.247 | 0.204 |
| NCI-H1355 | 0.826 | 0.783 | 0.685 | 0.137 | 0.126 | 0.779 | 0.802 | 0.778 | 0.581 | 0.15 | 0.442 | 0.444 | 0.387 | 0.309 | 0.165 | 0.484 | 0.423 | 0.435 | 0.26 | 0.148 |
| A-427 | 0.991 | 1.03 | 1.05 | 1.11 | 0.0762 | 0.83 | 0.683 | 0.713 | 0.238 | 0.163 | 0.58 | 0.518 | 0.51 | 0.454 | 0.201 | 0.347 | 0.21 | 0.282 | 0.121 | 0.0986 |
| LU99A | 0.424 |  | 0.466 | 0.224 | 0.141 | 0.298 | 0.376 | 0.252 | 0.14 | 0.0858 | 0.413 | 0.461 | 0.393 | 0.299 | 0.146 | 0.748 | 0.707 | 0.716 | 0.411 | 0.153 |
